Laboratory results taken from patent US8167991B2, “Trisazo compound, ink composition, recording method, and colored article” (Nippon Kayaku Kabushiki Kaisha, priority 2006, dated 2012).
Read-outs that look alike come from different tables or passages of the source. Blank lines part the entries; values can stand above or below the compound they belong to.

Experiment: Solubility of the dye compound
Assay type: physicochemical
[1] = compound obtained as a sodium salt, read-out: solubility
[2] = water, read-out: solubility in water

Structure (SMILES): CCCc1c(N=Nc2cc(C)c(N=Nc3ccc(N=Nc4ccc(S(=O)(=O)O)cc4)cc3S(=O)(=O)O)cc2OCCCS(=O)(=O)O)c(O)n2c(nc3ccccc32)c1C#N.CS(=O)(=O)O [Compound No. 3]
solubility [1]: ≥ 100 mg/mL

Structure (SMILES): CS(=O)(=O)O.Cc1cc(N=Nc2c(-c3ccccc3)c(C#N)c3nc4ccccc4n3c2O)c(OCCCS(=O)(=O)O)cc1N=Nc1ccc(N=Nc2ccc(S(=O)(=O)O)cc2)cc1S(=O)(=O)O [Compound No. 4]
solubility [1]: ≥ 100 mg/mL

Structure (SMILES): CS(=O)(=O)O.Cc1cc(N=Nc2c(C)c(C#N)c3nc4ccccc4n3c2O)c(OCCCS(=O)(=O)O)cc1N=Nc1cc(C)c(N=Nc2ccc(S(=O)(=O)O)cc2C(=O)O)cc1OCCCS(=O)(=O)O [Compound No. 6]
solubility [1]: ≥ 100 mg/mL

Structure (SMILES): CS(=O)(=O)O.Cc1cc(N=Nc2c(C)c(C(N)=O)c3nc4ccccc4n3c2O)c(OCCCS(=O)(=O)O)cc1N=Nc1cc(C)c(N=Nc2ccc(S(=O)(=O)O)cc2C(=O)O)cc1OCCCS(=O)(=O)O [Compound No. 7]
solubility [1]: ≥ 100 mg/mL

Structure (SMILES): CS(=O)(=O)O.Cc1cc(N=Nc2c(C)c(C#N)c3nc4ccccc4n3c2O)c(OCCCCS(=O)(=O)O)cc1N=Nc1ccc(N=Nc2ccc(S(=O)(=O)O)cc2)cc1S(=O)(=O)O [Compound No. 20]
solubility [1]: ≥ 100 mg/mL

Structure (SMILES): Cc1cc(N=Nc2c(S(=O)(=O)O)cc3c(S(=O)(=O)O)c(N=Nc4cc(S(=O)(=O)O)c5cc(S(=O)(=O)O)c(N=Nc6ccc([N+](=O)[O-])cc6S(=O)(=O)O)c(O)c5c4N)ccc3c2O)c(OCCCS(=O)(=O)O)cc1N=Nc1cc(C)c(N=Nc2ccc(S(=O)(=O)O)c3cc(S(=O)(=O)O)cc(O)c23)cc1OCCCS(=O)(=O)O [formula (75)]
solubility [1]: ≥ 100 mg/mL

Structure (SMILES): Nc1c(N=Nc2ccc3c(O)c(N=Nc4ccc5c(O)c(N=Nc6ccc(N=Nc7ccc(S(=O)(=O)O)cc7)cc6S(=O)(=O)O)c(S(=O)(=O)O)cc5c4S(=O)(=O)O)c(S(=O)(=O)O)cc3c2S(=O)(=O)O)cc(S(=O)(=O)O)c2cc(S(=O)(=O)O)c(N=Nc3ccc([N+](=O)[O-])cc3S(=O)(=O)O)c(O)c12 [formula (II-56)]
solubility [2]: ≥ 100 mg/mL

Second part, the compound after the results:

solubility [2]: ≥ 100 mg/mL
Structure (SMILES): Nc1c(N=Nc2ccc3c(O)c(N=Nc4ccc5c(O)c(N=Nc6ccc(N=Nc7ccc(S(=O)(=O)O)cc7)cc6S(=O)(=O)O)c(S(=O)(=O)O)cc5c4S(=O)(=O)O)c(S(=O)(=O)O)cc3c2S(=O)(=O)O)cc(S(=O)(=O)O)c2cc(S(=O)(=O)O)c(N=Nc3ccc(S(=O)(=O)O)cc3[N+](=O)[O-])c(O)c12 [formula (II-57)]

solubility [2]: ≥ 100 mg/mL
Structure (SMILES): Cc1cc(N=Nc2c(S(=O)(=O)O)cc3c(S(=O)(=O)O)c(N=Nc4c(S(=O)(=O)O)cc5c(S(=O)(=O)O)c(N=Nc6cc(S(=O)(=O)O)c7cc(S(=O)(=O)O)c(N=Nc8ccc([N+](=O)[O-])cc8S(=O)(=O)O)c(O)c7c6N)ccc5c4O)ccc3c2O)c(OCCCS(=O)(=O)O)cc1N=Nc1cc(S(=O)(=O)O)cc2cc(S(=O)(=O)O)cc(O)c12 [formula (II-59)]

solubility [2]: ≥ 100 mg/mL
Structure (SMILES): Cc1cc(N=Nc2c(S(=O)(=O)O)cc3c(S(=O)(=O)O)c(N=Nc4c(S(=O)(=O)O)cc5c(S(=O)(=O)O)c(N=Nc6cc(S(=O)(=O)O)c7cc(S(=O)(=O)O)c(N=Nc8ccc([N+](=O)[O-])cc8S(=O)(=O)O)c(O)c7c6N)ccc5c4O)ccc3c2O)c(OCCCS(=O)(=O)O)cc1N=Nc1cc(C(=O)O)cc(C(=O)O)c1 [formula (II-61)]
